Common to all, as to assay type: biochemical
In assay [1] the target is T1, SHV-5 (Enterobacter cloacae, UniProt Q6QNE1). Kind of assay: steady-state hydrolysis kinetics of purified enzyme.
In assay [2] the target is T2, SHV-5 M69I (Enterobacter cloacae, UniProt Q6QNE1, M65I). The description is as above.
In assay [3] the target is T1, SHV-5. Described as above. The source holds these as a separate data set.
Assay [4] addresses T2, SHV-5 M69I. The assay is described as above. The source holds these as a separate data set.
The target in assay [5] is T2, SHV-5 M69I. Kind of assay: hydrolysis kinetics of purified enzyme.
Assay [6] has as its target T1, SHV-5. Put plainly: steady-state hydrolysis kinetics of purified enzyme. The source holds these as a separate data set.

We go through three molecules from article PMC12216759 (Nature Communications, 2025).

Structures are written as SMILES.

For the molecule `CC(=O)OCC1=C(C(=O)O)N2C(=O)[C@@H](NC(=O)Cc3cccs3)[C@H]2SC1` [cephalothin], the “steady-state hydrolysis kinetics of purified enzyme (UV, 262 nm)” value was 1 ×10^6 M^−1s^−1 (kcat/KM) at SHV-5 [1] and 8 × 10^4 M^−1s^−1 (kcat/KM) on SHV-5 M69I [2].
As to `CO/N=C(\C(=O)N[C@@H]1C(=O)N2C(C(=O)O)=C(COC(C)=O)CS[C@H]12)c1csc(N)n1` [cefotaxime], the “steady-state hydrolysis kinetics of purified enzyme (UV, 264 nm)” value on SHV-5 [3] is on record as 8 × 10^5 M^−1s^−1 (kcat/KM); at SHV-5 M69I [4], 2.3 × 10^4 M^−1s^−1 (kcat/KM).
In the case of `CC(C)(O/N=C(\C(=O)N[C@@H]1C(=O)N2C(C(=O)[O-])=C(C[N+]3(CCNC(=O)c4ccc(O)c(O)c4Cl)CCCC3)CS[C@H]12)c1csc(N)n1)C(=O)O` [cefiderocol], at SHV-5 M69I [5], the “hydrolysis kinetics of purified enzyme (UV, 259 nm); KM too high to determine” value was 1.2 × 10^3 M^−1s^−1 (kcat/KM). Besides, the “steady-state hydrolysis kinetics of purified enzyme (UV, 259 nm)” value on SHV-5 [6] is 9 × 10^3 M^−1s^−1 (kcat/KM).
